# Test results from the supplement of paper PMC12137928.
# Structures can show the parent of a compound that is named as a salt.
# Test system: HCT116
# Conditions: 72 h
# Procedure, shortened: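 Luminescence was read with CellTiter-Glo in HCT116 cells seeded at 250 per well in 1536-well plates. Signals were scaled between vehicle at 0% and positive control at -100%, then pattern-corrected. IC50 and maximal efficacy were obtained by fitting a four-parameter Hill equation.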
SMILES,IC50 cell viability (ICRF193 0 nM) [µM],IC50 cell viability (ICRF193 200 nM) [µM]
O=C1[C@H](CC[C@H](O)c2ccc(F)cc2)[C@@H](c2ccc(O)cc2)N1c1ccc(F)cc1 [Ezetimibe],> 45.8,> 45.8
CC(N/C(=N\C#N)Nc1ccncc1)C(C)(C)C (centres undefined) [PINACIDIL],> 45.8,> 45.8
CCS(=O)(=O)CCn1c([N+](=O)[O-])cnc1C [Tinidazole],> 45.8,> 45.8
CCCC[C@@H](O)/C=C(C)/C=C/C=C/C(=O)N1CCCC1=O [Variotin],> 45.8,> 45.8
C[N+]1(CCCCC[N+]2(C)CCCC2)CCCC1 [Pentolinium bitartrate],> 45.8,> 45.8
OCc1cc([C@@H](O)CNCCCCCCOCCOCc2c(Cl)cccc2Cl)ccc1O,> 45.8,> 45.8
OC(CCN1CCCCC1)(c1ccccc1)C1CC2C=CC1C2 (centres undefined) [Biperiden],> 45.8,> 45.8
CC(=O)O[C@]1(C(C)=O)CC[C@H]2[C@@H]3C=C(C)C4=CC(=O)CC[C@@H]4[C@H]3CC[C@@]21C [Nomegestrol acetate],> 45.8,> 45.8
CC(C(=O)O)c1ccc(C(=O)c2cccs2)cc1 (centres undefined) [Suprofen],> 45.8,> 45.8
COc1cccc(OC)c1C(=O)N[C@@H]1C(=O)N2[C@@H]1SC(C)(C)[C@@H]2C(=O)O [Methicillin sodium hydrate],> 45.8,> 45.8
COc1ccc(-c2nc3cc(C4=NNC(=O)CC4C)ccc3[nH]2)cc1 (centres undefined) [Pimobendan],> 45.8,> 45.8
C[C@H]1[C@H](NC(=O)/C(=N\OC(C)(C)C(=O)O)c2csc(N)n2)C(=O)N1S(=O)(=O)O [Aztreonam],> 45.8,> 45.8
OC[C@@H](O)[C@@H](O[C@@H]1O[C@H](CO)[C@H](O)[C@H](O)[C@H]1O)[C@H](O)[C@@H](O)CO [Lactitol],> 45.8,> 45.8
CC(NCCc1ccc(O)cc1)C(O)c1ccc(O)cc1 (centres undefined) [Ritodrine hydrochloride],> 45.8,> 45.8
COC(=O)CCC[N+](C)(C)C [Carpronium chloride],> 45.8,> 45.8
O=C([O-])[C@H]1/C(=C/CO)O[C@@H]2CC(=O)N21.[Li+] [CLAVULANATE LITHIUM],> 45.8,> 45.8
CC1OC2(CS1)CN1CCC2CC1 (centres undefined) [Cevimeline hydrochloride],> 45.8,> 45.8
CCC1(C)OC(=O)N(C)C1=O (centres undefined) [PARAMETHADIONE],> 45.8,> 45.8
Oc1ccc(Cl)cc1 [4-Chlorophenol],> 45.8,> 45.8
O=C(O)CCC(=O)c1ccc(-c2ccccc2)cc1 [Fenbufen],> 45.8,> 45.8
CC(C)(C)c1ccc(C(O)CCCN2CCC(C(O)(c3ccccc3)c3ccccc3)CC2)cc1 (centres undefined) [Terfenadine],> 45.8,> 45.8
"Cc1ccc2c(Cl)cc(Cl)c(O)c2n1 [5,7-Dichloro-8-hydroxy-2-methylquinoline]",> 45.8,> 45.8
O=C(O)c1cc(-c2ccc(F)cc2F)ccc1O [Diflunisal],> 45.8,> 45.8
Nc1nc(=O)c(Br)c(-c2ccccc2)[nH]1 [Bropirimine],> 45.8,> 45.8

SMILES,IC50 cell viability (ICRF193 0 nM) [µM],IC50 cell viability (ICRF193 200 nM) [µM]
COP(=S)(OC)Oc1ccc(S(N)(=O)=O)cc1 [Cythioate],> 45.8,> 45.8
COc1cc(/C=C/C(=O)O[C@H]2CC[C@]34C[C@]35CC[C@]3(C)[C@@H]([C@H](C)CCC=C(C)C)CC[C@@]3(C)[C@@H]5CC[C@H]4C2(C)C)ccc1O [gamma-Oryzanol],> 45.8,> 45.8
Cc1c(-c2ccccc2)oc2c(C(=O)OCCN3CCCCC3)cccc2c1=O [Flavoxate hydrochloride],> 45.8,> 45.8
CC(C)(C)NCC(O)c1ccc(O)c(CO)c1 (centres undefined) [Salbutamol],> 45.8,> 45.8
CCNC1(c2cccs2)CCCCC1=O (centres undefined) [Tiletamine Hydrochloride],> 45.8,> 45.8
COc1ccnc2c1CCCCC2[S+]([O-])c1nc2ccccc2[nH]1 (centres undefined) [Nepaprazole],> 45.8,> 45.8
C[C@@H](N)C(=O)O [D-Alanine],> 45.8,> 45.8
Nc1c(CC(=O)O)cccc1C(=O)c1ccccc1 [Amfenac Sodium],> 45.8,> 45.8
CC(C)Cc1ccc(C(C)C(=O)OCc2ccccn2)cc1 (centres undefined) [Ibuprofen piconol],> 45.8,> 45.8
COCCOC(=O)C1=C(C)NC(C)=C(C(=O)OC(C)C)C1c1cccc([N+](=O)[O-])c1 (centres undefined) [Nimodipine],> 45.8,> 45.8
CNS(=O)(=O)C[C@H]1CC[C@H](N(C)c2[nH]cnc3nccc2-3)CC1 [Oclacitinib],> 45.8,> 45.8
FC(F)(F)C(F)(F)C(F)(F)C(F)(F)C(F)(F)F [Perflenapent],> 45.8,> 45.8
CCOc1ccc(/N=C(\C)Nc2ccc(OCC)cc2)cc1 [Phenacaine hydrochloride],> 45.8,> 45.8
"O=S(=O)(O)CC(S)CS (centres undefined) [Sodium 2,3-dimercaptopropanesulfonate monohydrate]",> 45.8,> 45.8
C=C1c2cccc(O)c2C(=O)C2=C(O)[C@]3(O)C(=O)C(C(N)=O)=C(O)[C@@H](N(C)C)[C@@H]3[C@@H](O)[C@H]12 [Methacycline hydrochloride],> 45.8,> 45.8
O=C(O)COc1nn(Cc2ccccc2)c2ccccc12 [Bendazac sodium],> 45.8,> 45.8
CC(C)(C#N)c1cc(Cn2cncn2)cc(C(C)(C)C#N)c1 [Anastrozole],> 45.8,> 45.8
O=S(=O)(O)c1cc(O)ccc1O [Dobesilate Calcium],> 45.8,> 45.8
CCN(CC)CCOC(=O)C1(C2CCCCC2)CCCCC1 [Dicyclomine],> 45.8,> 45.8
Cc1cc(OI)c(C(C)C)cc1-c1cc(C(C)C)c(OI)cc1C [Thymol iodide],> 45.8,> 45.8
COc1c(O)cc2c(c1O)[C@@H]1O[C@H](CO)[C@@H](O)[C@H](O)[C@H]1OC2=O [Bergenin monohydrate],> 45.8,> 45.8
NCCc1ccc(O)c(O)c1 [Dopamine hydrochloride],> 45.8,> 45.8
CC(C)C[C@H](NC(=O)[C@@H](Cc1c[nH]c2ccccc12)NC(=O)[C@H](Cc1ccc(O)cc1)NC(=O)[C@H](CO)NC(=O)[C@H](Cc1c[nH]c2ccccc12)NC(=O)[C@H](Cc1c[nH]cn1)NC(=O)[C@@H]1CCC(=O)N1)C(=O)N[C@@H](CCCNC(=N)N)C(=O)N1CCC[C@H]1C(=O)NCC(N)=O [Triptorelin],> 45.8,> 45.8
